Data: patent publication US10669235B2, “Indole derivatives and their use as protein kinase inhibitors” (RESPIVERT LIMITED, priority 2016, dated 2020)
Structures can show the parent of a compound that is named as a salt. Where two headings read alike, the source gives them in different places.

Key:
[1] = biological target: T1, PDGFRβ (Homo sapiens (Human), UniProt P09619); assay: PDGF-BB induced phosphorylation of PDGFRβ in fibroblasts (MRC5, HTRF); format: cell-based; conditions: MRC5 cells, PDGFBB stimulation; read-out: PDGFBB-induced PDGFRβ phosphorylation in MRC5 cells (IC50)
T1 sequence (P09619 33-1106): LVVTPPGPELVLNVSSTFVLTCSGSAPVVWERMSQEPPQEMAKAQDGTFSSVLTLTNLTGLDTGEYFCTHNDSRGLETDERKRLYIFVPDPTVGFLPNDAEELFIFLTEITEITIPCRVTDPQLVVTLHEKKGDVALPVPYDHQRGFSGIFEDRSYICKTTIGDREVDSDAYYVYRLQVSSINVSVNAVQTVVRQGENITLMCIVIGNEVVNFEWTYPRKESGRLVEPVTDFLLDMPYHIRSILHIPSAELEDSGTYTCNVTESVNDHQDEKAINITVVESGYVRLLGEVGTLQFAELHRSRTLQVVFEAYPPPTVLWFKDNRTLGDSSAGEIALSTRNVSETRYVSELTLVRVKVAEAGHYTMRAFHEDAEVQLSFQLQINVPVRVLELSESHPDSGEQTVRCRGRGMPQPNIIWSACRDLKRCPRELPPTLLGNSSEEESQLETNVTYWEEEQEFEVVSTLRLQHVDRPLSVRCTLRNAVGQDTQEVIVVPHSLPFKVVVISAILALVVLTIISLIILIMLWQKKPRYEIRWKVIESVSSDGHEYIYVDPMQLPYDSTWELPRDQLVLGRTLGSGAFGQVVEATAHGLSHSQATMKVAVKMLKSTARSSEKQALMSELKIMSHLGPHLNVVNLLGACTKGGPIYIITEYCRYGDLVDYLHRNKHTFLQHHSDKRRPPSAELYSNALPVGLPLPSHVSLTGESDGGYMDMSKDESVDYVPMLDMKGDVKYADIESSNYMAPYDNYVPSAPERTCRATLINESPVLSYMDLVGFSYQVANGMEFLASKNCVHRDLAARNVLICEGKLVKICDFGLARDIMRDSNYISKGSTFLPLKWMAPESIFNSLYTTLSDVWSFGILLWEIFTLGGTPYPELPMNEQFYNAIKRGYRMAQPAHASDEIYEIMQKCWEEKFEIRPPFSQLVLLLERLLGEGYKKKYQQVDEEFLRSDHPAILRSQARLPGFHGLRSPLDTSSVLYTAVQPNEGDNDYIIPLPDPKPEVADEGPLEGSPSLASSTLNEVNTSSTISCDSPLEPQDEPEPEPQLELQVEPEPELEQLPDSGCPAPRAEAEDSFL

[2] = biological target: T1, PDGFRβ; assay: PDGFRβ enzyme inhibition (ADP-Glo assay); format: biochemical
[3] = system: MRC5 cells; assay: Cell viability assay in MRC5 cells (MTT)
[4] = Pharmacokinetic measurements in rats (i.v., i.t., oral); format: in vivo; conditions: rat; for concentration at 0.1 h: read-out: lung concentration (nM) at time 0.1 h; for concentration at 1.5 h: read-out: lung concentration (nM) at time 1.5 h; for concentration at 6 h: read-out: lung concentration (nM) at time 6 h; for concentration at 24 h: read-out: lung concentration (nM) at time 24 h
[5] = PAMPA permeability assay; format: in vitro ADME; conditions: pH 7, PAMPA; for Papp at 5 hr, 10 μM: pH 7, 10 μM
[6] = mean, n = 2 (nintedanib n = 34)
[7] = i.t. dose 0.1 (nintedanib 0.42)
[8] = i.t. dose 0.1 (nintedanib 0.42), 6 h
[9] = i.t. dose 0.1 (nintedanib 0.42), 24 h
[10] = i.v. dose 0.1 (nintedanib 0.42)
[11] = i.v. dose 0.1 (nintedanib 0.42), 6 h
[12] = i.v. dose 0.1 (nintedanib 0.42), 24 h

CNC(=O)CN(C)CCNC(=O)c1ccc(N/C(=C2\C(=O)Nc3cc(C(=O)OC)c(C)cc32)c2ccccc2)cc1 [Example 54, (Z)-Methyl 5-methyl-3-(((4-((2-(methyl(2-(methylamino)-2-oxoethyl)amino)ethyl)carbamoyl)phenyl)amino)(phenyl)methylene)-2-oxoindoline-6-carboxylate]
IC50 [1]: 5.04 nM | Ki [2, 6]: 15.8 nM | Cell viability at 100 nM (%) [3]: 110.2% | Cell viability at 300 nM (%) [3]: 105.5% | Cell viability at 1000 nM (%) [3]: 92.4%

COC(=O)c1cc2c(cc1C)/C(=C(/Nc1ccc(C(=O)N(C)[C@H]3CN(C)C[C@@H]3O)cc1)c1ccccc1)C(=O)N2 [Example 48, (Z)-Methyl 3-(((4-(((3S,4S)-4-hydroxy-1-methylpyrrolidin-3-yl)(methyl)carbamoyl)phenyl)amino)(phenyl)methylene)-5-methyl-2-oxoindoline-6-carboxylate, 0.4 formate]
IC50 [1]: 2.29 nM | Ki [2, 6]: 9.49 nM | Cell viability at 100 nM (%) [3]: 84.4% | Cell viability at 300 nM (%) [3]: 74.4% | Cell viability at 1000 nM (%) [3]: 14.1%

COC(=O)c1cc2c(cc1C)/C(=C(/Nc1ccc(C(=O)NCCN3CCC(CO)CC3)cc1)c1ccccc1)C(=O)N2 [Example 42, (Z)-Methyl 3-(((4-((2-(4-(hydroxymethyl)piperidin-1-yl)ethyl)carbamoyl)phenyl)amino)(phenyl)methylene)-5-methyl-2-oxoindoline-6-carboxylate, 0.2 formate]
IC50 [1]: 14.9 nM | Ki [2, 6]: 14.4 nM | Cell viability at 100 nM (%) [3]: 82.5% | Cell viability at 300 nM (%) [3]: 83.4% | Cell viability at 1000 nM (%) [3]: 60.7%

COC(=O)c1cc2c(cc1C)/C(=C(/Nc1ccc(C(=O)NCCN3CCN(C(C)=O)CC3)cc1)c1ccccc1)C(=O)N2 [Example 24, (Z)-Methyl 3-(((4-((2-(4-acetylpiperazin-1-yl)ethyl)carbamoyl)phenyl)amino)(phenyl)methylene)-5-methyl-2-oxoindoline-6-carboxylate]
IC50 [1]: 12.3 nM | Ki [2, 6]: 12.7 nM | Cell viability at 100 nM (%) [3]: 125.2% | Cell viability at 300 nM (%) [3]: 74.4% | Cell viability at 1000 nM (%) [3]: 45.9%

COC(=O)c1cc2c(cc1C)/C(=C(/Nc1ccc(C(=O)NCCN3CCC(F)CC3)cc1)c1ccccc1)C(=O)N2 [Example 28, (Z)-Methyl 3-(((4-((2-(4-fluoropiperidin-1-yl)ethyl)carbamoyl)phenyl)amino)(phenyl)methylene)-5-methyl-2-oxoindoline-6-carboxylate, formate]
IC50 [1]: 51.3 nM | Ki [2]: 20 nM | Cell viability at 100 nM (%) [3]: 149.4% | Cell viability at 300 nM (%) [3]: 97.6% | Cell viability at 1000 nM (%) [3]: 83.6%

COC(=O)c1cc2c(cc1C)/C(=C(/Nc1ccc(C(=O)NCC(=O)N3CCN(CCO)CC3)cc1)c1ccccc1)C(=O)N2 [Example 7, (Z)-Methyl 3-(((4-((2-(4-(2-hydroxyethyl)piperazin-1-yl)-2-oxoethyl)carbamoyl)phenyl)amino) (phenyl)methylene)-5-methyl-2-oxoindoline-6-carboxylate, formate]
IC50 [1]: 6.04 nM | MRT ([4]; male, CD, plasma, iv): 42 min | clearance ([4]; male, CD, plasma, iv): 75 mL/min/kg | half-life ([4]; male, CD, plasma, iv): 36 min | Vd ([4]; male, CD, plasma, iv, read-out: Vss): 3.4 L/kg | Lung conc i.t./i.v. Ratio at time 0.1 h [4]: 15.5 | Lung conc i.t./i.v. Ratio at time 1.5 h [4]: 20.1 | Lung conc i.t./i.v. Ratio at time 6 h ([4]; 6 h): >42 | Lung conc i.t./i.v. Ratio at time 24 h ([4]; 24 h): >10 | i.t. BAV (%) [4, 7]: 35% | BAL % administered dose at time 0.1 h [4, 7]: 3.5% | lung/plasma conc ratio at time 0.1 h [4, 7]: 39 | concentration at 0.1 h [4, 7]: 1532 nM | BAL % administered dose at time 1.5 h [4, 7]: 0.6% | lung/plasma conc ratio at time 1.5 h [4, 7]: >265 | concentration at 1.5 h [4, 7]: 886 nM | BAL % administered dose at time 6 h [4, 8]: 0.1% | lung/plasma conc ratio at time 6 h [4, 8]: >35 | concentration at 6 h [4, 8]: 116 nM | BAL % administered dose at time 24 h [4, 9]: BQL | lung/plasma conc ratio at time 24 h [4, 9]: >8 | concentration at 24 h [4, 9]: 27 nM | BAL % administered dose at time 0.1 h [4, 10]: 0.06% | lung/plasma ratio at time 0.1 h [4, 10]: 2 | concentration at 0.1 h [4, 10]: 99 nM | BAL % administered dose at time 1.5 h [4, 10]: BQL | lung/plasma ratio at time 1.5 h [4, 10]: 12 | concentration at 1.5 h [4, 10]: 44 nM | BAL % administered dose at time 6 h [4, 11]: BQL | lung concentration (nM) at time 6 h [4, 11]: BQL | BAL % administered dose at time 24 h [4, 12]: BQL | lung concentration (nM) at time 24 h [4, 12]: BQL | Oral BAV (%) ([4]; oral dose 3 mg/kg): <7% | recovery at 5 hr, 10 μM [5]: 56.3% | Papp at 5 hr, 10 μM [5]: 0.00653 ×10⁻⁶ cm/s | Cell viability at 100 nM (%) [3]: 102.9% | Cell viability at 300 nM (%) [3]: 97.2% | Cell viability at 1000 nM (%) [3]: 67.5%

COC(=O)c1cc2c(cc1C)/C(=C(/Nc1ccc(C(=O)N3CCCN(CCO)CC3)cc1)c1ccccc1)C(=O)N2 [Example 46, (Z)-Methyl-3-(((4-(4-(2-hydroxyethyl)-1,4-diazepane-1-carbonyl)phenyl)amino)(phenyl)methylene)-5-methyl-2-oxoindoline-6-carboxylate]
IC50 [1]: 2.49 nM | Ki [2, 6]: 6.65 nM | Cell viability at 100 nM (%) [3]: 87% | Cell viability at 300 nM (%) [3]: 80.2% | Cell viability at 1000 nM (%) [3]: 18.2%

COC(=O)c1cc2c(cc1C)/C(=C(/Nc1cccc(C(=O)N(C)CCN(C)C)c1)c1ccccc1)C(=O)N2 [Example 16, (Z)-Methyl 3-(((3-((2-(dimethylamino)ethyl)(methyl)carbamoyl)phenyl)amino)(phenyl)methylene)-5-methyl-2-oxoindoline-6-carboxylate]
Ki [2, 6]: 13 nM | Cell viability at 100 nM (%) [3]: 103.2% | Cell viability at 300 nM (%) [3]: 104.3% | Cell viability at 1000 nM (%) [3]: 70.6%

COC(=O)c1cc2c(cc1C)/C(=C(/Nc1ccc(C(=O)NCCN3CCCN(C)CC3)cc1)c1ccccc1)C(=O)N2 [Example 5, (Z)-Methyl 5-methyl-3-(((4-((2-(4-methyl-1,4-diazepan-1-yl)ethyl)carbamoyl)phenyl)amino) (phenyl)methylene)-2-oxoindoline-6-carboxylate, formate]
IC50 [1]: 15 nM | Lung conc i.t./i.v. Ratio at time 0.1 h [4]: 7 | Lung conc i.t./i.v. Ratio at time 1.5 h [4]: 12 | Lung conc i.t./i.v. Ratio at time 6 h ([4]; 6 h): 2 | Lung conc i.t./i.v. Ratio at time 24 h ([4]; 24 h): 7 | BAL % administered dose at time 0.1 h [4, 7]: 13.6% | lung/plasma conc ratio at time 0.1 h [4, 7]: 371 | concentration at 0.1 h [4, 7]: 5506 nM | BAL % administered dose at time 1.5 h [4, 7]: 0.9% | lung/plasma conc ratio at time 1.5 h [4, 7]: >2285 | concentration at 1.5 h [4, 7]: 4022 nM | BAL % administered dose at time 6 h [4, 8]: 0.2% | lung/plasma conc ratio at time 6 h [4, 8]: >606 | concentration at 6 h [4, 8]: 1067 nM | BAL % administered dose at time 24 h [4, 9]: 0.2% | lung/plasma conc ratio at time 24 h [4, 9]: >951 | concentration at 24 h [4, 9]: 1674 nM | BAL % administered dose at time 0.1 h [4, 10]: BQL | lung/plasma ratio at time 0.1 h [4, 10]: 127 | concentration at 0.1 h [4, 10]: 765 nM | BAL % administered dose at time 1.5 h [4, 10]: BQL | lung/plasma ratio at time 1.5 h [4, 10]: >188 | concentration at 1.5 h [4, 10]: 330 nM | BAL % administered dose at time 6 h [4, 11]: BQL | lung/plasma ratio at time 6 h [4, 11]: >284 | concentration at 6 h [4, 11]: 499 nM | BAL % administered dose at time 24 h [4, 12]: BQL | lung/plasma ratio at time 24 h [4, 12]: >140 | concentration at 24 h [4, 12]: 247 nM | recovery at 5 hr, 10 μM [5]: 58.7% | Papp at 5 hr, 10 μM [5]: 0.00254 ×10⁻⁶ cm/s | Cell viability at 100 nM (%) [3]: 91.5% | Cell viability at 300 nM (%) [3]: 81% | Cell viability at 1000 nM (%) [3]: 84.8%
